IC50 and ED50 data for 8 compounds are collected here from patent US6020343A, “(Methylsulfonyl)phenyl-2-(5H)-furanones as COX-2 inhibitors” (Merck Frosst Canada, Inc., priority 1998, dated 2000).

As a reminder, the IC50 is the concentration that inhibits the measured activity by half. As usually defined, the ED50 is the dose that gives a 50% effect, or the effect in half of the subjects. The low end stands for an effect at a small dose, the high end for a need for a large dose.

The target in assay [1] is T1, COX-1 (Homo sapiens, UniProt P23219). Nature of the assay: Human Whole Blood Assay, COX-1 (Clotting-induced TxB2 Production). Set-up: endogenous in cells. Conditions: clotting-induced TxB2, 1 hour, Table III, read-out: COX-1 (IC50) HWB. In kind it is cell-based. The source says: As well, platelets in whole blood contain a large amount of the COX-1 enzyme. Immediately following blood clotting, platelets are activated through a thrombin-mediated mechanism. […] Therefore, the degree of selectivity by the test compound can be determined by measuring the levels of PGE2 after LPS induction (COX-2) and TxB2 following blood clotting (COX-1) in the same assay.
B. COX-1 (Clotting-induced TxB2 Production)
Fresh blood is collected into vacutainers containing no anticoagulants. Aliquots of 500 μL are immediately transferred to siliconized microcentrifuge tubes preloaded with 2 μL of either DMSO or a test compound at final concentrations varying from 10 nM to 30 μM. The tubes are vortexed and incubated at 37° C. for 1 hour to allow blood to clot. At the end of incubation, serum is obtained by centrifugation (12,000×g for 5 min.). A 100 μL aliquot of serum is mixed with 400 μL of methanol for protein precipitation.

Assay [2] concerns the target T1, COX-1. Nature of the assay: Assay of COX-1 Activity from U937 Cell Microsomes (U937). The format is biochemical. More on the design: human U-937 cells (which specifically express COX-1); endogenous in cells; host or cells: microsomes of U937 cells. The note with it: U937, PGE2; Table III. As to the method:
Compounds are tested as inhibitors of cyclooxygenase activity in whole cell cyclooxygenase assays. Both of these assays measure prostaglandin E2 synthesis in response to arachidonic acid, using a radioimmunoassay. Cells used for these assays are human osteosarcoma 143 cells (which specifically express COX-2) and human U-937 cells (which specifically express COX-1). In these assays, 100% activity is defined as the difference between prostaglandin E2 synthesis in the absence and presence of arachidonate.
For cyclooxygenase assays, osteosarcoma cells are cultured in 1 mL of media in 24-well multidishes (Nunclon) until confluent (1-2×10^5 cells/well). […] All assays are performed in triplicate. […] Arachidonic acid (peroxide-free, Cayman Chemical) is prepared as a 10 mM stock solution in ethanol and further diluted 10-fold in HBSS. An aliquot of 10 μL of this diluted solution is added to the cells to give a final arachidonic acid concentration of 10 μM. Control samples are incubated with ethanol vehicle instead of arachidonic acid. Samples are again gently mixed and incubated for a further 10 min. at 37° C. For osteosarcoma cells, reactions are then stopped by the addition of 100 μL of 1N HCl, with mixing and by the rapid removal of the solution from cell monolayers. For U-937 cells, reactions are stopped by the addition of 100 μL of 1N HCl, with mixing.
U 937 cells are pelleted by centrifugation at 500×g for 5 min and washed once with phosphate-buffered saline and repelleted. Cells are resuspended in homogenization buffer consisting of 0.1 M Tris-HCl, pH 7.4, 10 mM EDTA, 2 μg/ml leupeptin, 2 μg/ml soybean trypsin inhibitor, 2 μg/ml aprotinin and 1 mM phenyl methyl sulfonyl fluoride. The cell suspension is sonicated 4 times for 10 sec and is centrifuged at 10,000×g for 10 min at 4° C. The supernatant is centrifuged at 100,000×g for 1 hr at 4° C. The 100,000×g microsomal pellet is resuspended in 0.1 M Tris-HCl, pH 7.4, 10 mM EDTA to approximately 7 mg protein/ml and stored at -80° C.
Assays are performed in duplicate in a final volume of 250 μl. […]

A further assay deals with T2, CHO [hCOX-1] (Homo sapiens, UniProt P23219).
T2 construct: expressed in transfected cells; host or cells: Chinese hamster ovary (CHO) cells, vector pCDNAIII
Nature of the assay: Whole Cell Assay for COX-1 using CHO Transfected Cell Lines. In kind it is cell-based. The note with it: CHO [hCOX-1] cells, 0.5 μM AA, PGE2. The protocol:
Chinese hamster ovary (CHO) cell lines which have been stably transfected with an eukaryotic expression vector pCDNAIII containing either the human COX-1 or COX-2 cDNA's are used for the assay. These cell lines are referred to as CHO [hCOX-1] and CHO [hCOX-2], respectively. […] Cells (0.3×10^6 cells in 200 μl) are preincubated with 3 μl of the test drug or DMSO vehicle for 15 min at 37° C. […] Cells are then challenged in the presence or absence of drug with the AA/HBSS solution to yield a final concentration of 0.5 μM AA in the CHO[hCOX-1] assay and a final concentration of 10 μM AA in the CHO[hCOX-2] assay. […] The samples are centrifuged at 300×g at 4° C. for 10 min, and an aliquot of the clarified supernatant is appropriately diluted for the determination of PGE2 levels using an enzyme-linked immunoassay for PGE2 (Correlate PGE2 enzyme immunoassay kit, Assay Designs, Inc.). Cyclooxygenase activity in the absence of test compounds is determined as the difference in PGE2 levels of cells challenged with arachidonic acid versus the PGE2 levels in cells mock-challenged with ethanol vehicle. Inhibition of PGE2 synthesis by test compounds is calculated as a percentage of the activity in the presence of drug versus the activity in the positive control samples.

Assay [3] has as its system carrageenan-induced paw edema. Nature of the assay: Rat Paw Edema Assay. The format is in vivo, Male Sprague-Dawley rats. The note with it: po, paw volume 3 hr, Table IV. As to the method:
Male Sprague-Dawley rats (150-200 g) are fasted overnight and are given, po, either vehicle (1% methocel or 5% Tween 80) or a test compound. One hr later, a line is drawn using a permanent marker at the level above the ankle in one hind paw to define the area of the paw to be monitored. The paw volume (V0) is measured using a plethysmometer (Ugo-Basile, Italy) based on the principle of water displacement. The animals are then injected subplantarly with 50 μl of 1% carrageenan solution in saline (FMC Corp, Maine) into the paw using an insulin syringe with a 25-gauge needle (i.e. 500 μg carrageenan per paw). Three hr later, the paw volume (V3) is measured and the increases in paw volume (V3 -VO) are calculated. The animals are sacrificed by CO2 asphyxiation and the absence or presence of stomach lesions scored. Data is compared with the vehicle-control values and percent inhibition calculated. All treatment groups are coded to eliminate observer bias.

T1 sequence (P23219 24-599): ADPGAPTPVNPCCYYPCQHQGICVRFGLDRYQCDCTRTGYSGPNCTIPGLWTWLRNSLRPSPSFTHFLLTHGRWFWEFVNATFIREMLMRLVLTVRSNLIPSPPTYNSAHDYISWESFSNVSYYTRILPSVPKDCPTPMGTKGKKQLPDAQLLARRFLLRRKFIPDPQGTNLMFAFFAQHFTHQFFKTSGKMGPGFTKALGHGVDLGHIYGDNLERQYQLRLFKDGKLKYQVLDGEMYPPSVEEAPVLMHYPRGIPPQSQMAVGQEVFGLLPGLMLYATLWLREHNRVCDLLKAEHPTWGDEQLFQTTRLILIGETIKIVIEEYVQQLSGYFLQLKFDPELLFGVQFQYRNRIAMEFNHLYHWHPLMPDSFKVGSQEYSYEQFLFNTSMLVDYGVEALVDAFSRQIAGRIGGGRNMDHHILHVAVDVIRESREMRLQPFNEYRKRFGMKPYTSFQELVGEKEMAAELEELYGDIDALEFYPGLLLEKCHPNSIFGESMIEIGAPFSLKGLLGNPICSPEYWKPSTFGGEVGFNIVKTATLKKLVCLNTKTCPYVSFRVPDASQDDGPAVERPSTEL
T2 sequence (P23219 24-599): as above

Turning to `CC1(C)OC(=O)C(Oc2cccc(F)c2)=C1c1ccc(S(C)(=O)=O)cc1` [Example 2, 3-(3-Fluorophenoxy)-5,5-dimethyl-4-(4-(methylsulfonyl)phenyl)-5H-furan-2-one], at COX-1 [1], the half-inhibitory concentration (IC50) amounted to 23 µM.
Consider `CC1(C)OC(=O)C(Oc2cc(F)cc(F)c2)=C1c1ccc(S(C)(=O)=O)cc1` [Example 3], for which inhibition against COX-1 [2] was half-maximal at 1 µM (IC50).
Turning to `CC1(C)OC(=O)C(Oc2ccc(Cl)cc2)=C1c1ccc(S(C)(=O)=O)cc1` [Example 6, 3-(4-Chlorophenoxy)-5,5-dimethyl-4-(4-(methylsulfonyl)phenyl)-5H-furan-2-one], on COX-1 [1], the concentration for half-maximal inhibition (IC50) is 1.8 µM.
Consider `CS(=O)(=O)c1ccc(C2=C(Sc3ccccc3)C(=O)OC2)cc1` [Example 15, 3-Phenylthio-4-(4-(methylsulfonyl)phenyl)-5H-furan-2-one], for which, at COX-1 [2], the IC50 is greater than 10 µM.
`CC1(C)OC(=O)C(C(=O)c2ccccc2)=C1c1ccc(S(C)(=O)=O)cc1` [Example 19b, 3-Benzoyl-5,5-dimethyl-4-(4-(methylsulfonyl)phenyl)-5H-furan-2-one] showed an IC50 against CHO [hCOX-1] (Table III) greater than 50 µM.
In turn, `CC1(C)OC(=O)C(Oc2ccc(Cl)cn2)=C1c1ccc(S(C)(=O)=O)cc1` [Example 25, 3-(5-Chloro-2-pyridyloxy)-5,5-dimethyl-4-(4-(methylsulfonyl)phenyl)-5H-furan-2-one] returned an IC50 against COX-1 [2] of 3 µM.
As to `CC1(C)OC(=O)C(Oc2ccc(F)cn2)=C1c1ccc(S(C)(=O)=O)cc1` [Example 58], the half-inhibitory concentration (IC50) at CHO [hCOX-1] (Table IV) was greater than 50 µM. This compound showed an ED50 in assay [3] of 0.32 mg/kg.
The compound `CC1(C)OC(=O)C(Oc2ccc(Br)cn2)=C1c1ccc(S(C)(=O)=O)cc1` [Example 108] yielded an IC50 against CHO [hCOX-1] (Table IV) greater than 50 µM.
